The subject of the test is Vero-E6 cells. Put plainly: Real time inhibition assay of cell migration (on-chip SAM wound edge with cellular impedance sensing). Format: cell-based. The method, then:
For at least one of the electrodes, the surface is treated with a chemical coating that inhibits cell adhesion onto the electrode (302). This generates a chemical coat-modified surface on the electrodes. The chemical coating maintains contact with the surface of the electrodes until desorbed by application of an electrical signal capable of desorbing the coating. The chemical coating can be applied by contacting the electrodes with a solution or suspension of coating material in a carrier, or by contacting the electrode with the coating material without a carrier. A background impedance value is measured in absence of cells (304). After measuring the background impedance (Z0), target cells are added to the device (306). A layer of cells is allowed to grow on the surface of the device (308). […] As a result, all the cells grow on the surface of the SiO2 insulation substrate forming a cell monolayer. After incubation, wound edges are formed automatically on the device. Once the cells have grown over the surfaces, an electrical signal is applied to the electrodes, which causes the chemical coating to desorb from the electrodes (310). This provides a cell-free electrode surface surrounded by cells growing on the adjacent insulation. The cell impedance (Zx) is monitored in real-time as the cells grow or migrate across the electrodes (312). Cells growing on the electrodes can cause measurable changes in the electrical properties of the circuit, e.g., impedance; consequently, the rate of cell migration or spreading can be monitored by monitoring electrical properties of the electrodes. The final impedance data is normalized as Zx/Z0 (314). The normalized impedance data reflects the impedance variation induced by the attachment of the cells.
For illustrative purposes, the process 300 is described using an example protocol for monitoring cell migration. An example protocol includes preparing an impedance measuring device (e.g., device 100) for impedance measurement by sterilizing the device. After sterilization, (e.g., in 75% ethanol for 20 minutes and then exposure to UV irradiation for another 30 minutes), a thiol compound is added to the microfluidic cavities. Thiol compound (HS(CH2)11(OCH2CH2)6OH (abbreviated as “EG6”) is obtained from Sigma-Aldrich (St. Louis, Mo.). EG6 (1.5 mM in ethanol) can be added to each microfluidic cavity of the device using a syringe and incubated for 8 hours at room temperature. Then, the microfluidic cavities are washed by ethanol followed by PBS buffer. Before cell seeding, tissue culture media is injected into chambers of the device to read the background impedance value (Z0). […]
At the same time, the impedance (Zx) is measured in real-time with a time resolution of 5 minutes, for example. […]

As to `COc1cc2c(c(OC)c1OC)-c1ccc(OC)c(=O)cc1[C@@H](NC(C)=O)CC2` [colchicine], the “time point at which the cells heal a wound (t0.1; impedance saturation)” value (0.1 μM colchicine, Vero-E6 cells, control tc=4.2±0.17 h) was 4.6 ± 0.19 h. For the setting “0.2 μM colchicine, Vero-E6 cells, control tc=4.2±0.17 h”, the “time point at which the cells heal a wound (t0.2; impedance saturation)” value was determined as 5.1 ± 0.21 h. Further, the “time point at which the cells heal a wound (t0.4; impedance saturation)” value (0.4 μM colchicine, Vero-E6 cells, control tc=4.2±0.17 h) amounted to 8.2 ± 0.42 h. Also, the “inhibition effect on Vero-E6 cell migration (average speed AS)” value (0.1, 0.2 and 0.4 μM, AS=R×t^−1, FIG. 7B) is given as “inhibits Vero-E6 cell migration in a drug concentration dependant manner”.
